We go through five compounds from US20110251135A1, “INHIBITORS OF PERITONEAL SEEDING OF CANCER CELLS” (University of Utah Research Foundation, priority 2008, published 2011).

The subject of assay [1] is DLD-1, HCT-116, HT-29 colon cancer cell lines. The assay can be described thus: Cell proliferation assay (crystal violet, 96-well). Format: cell-based, human. The method, then:
(§1) The data points represent the means of triplicate experiments and the error bars the standard errors of the means. […] The percent of apoptotic cells was then determined by the annexin V assay. […] The results shown are typical of two separate experiments. […] Immunoblots were performed for c-IAP-2, TRAF-1, TRAF-2, and FLIP. All lanes contain equal total protein.
For the cell proliferation assay, cells were dispersed and plated at 40,000 cells/well in 96-well dishes. At various days in culture, the cells were gently washed twice with 100 μL/well of ice-cold blocking buffer (1% radioimmunoassay grade BSA in PBS) and twice with 100 μL/well of ice-cold PBS. The cells were fixed for 10 min in 100% ice-cold methanol (100 μL/well), then allowed to air-dry. The cells were stained with 100 μL/well of 0.1% crystal violet in H20 for 10 minutes, then washed gently four times with dd H20 and four times with PBS. The plates were then air-dried completely. The stained cells were then solubilized in 1% sodium deoxycholate, and the plates read at 590 nm in a spectrophotometer. The absorption at 590 nm is proportional to the number of attached cells.

In assay [2] the test system is NF-κB. The assay can be described thus: NF-κB electrophoretic mobility shift assay (EMSA), nuclear lysates of treated HT-29 cells. The class given is cell-based, human. Particulars: 10 μM, 3 and 6 hour incubations. On the technique in general: Mobility shift assays separate free from complexed probe on a gel.
Assay [3] relates to DLD-1 cells. Briefly: Soft agar colony formation assay. The class given is cell-based, human. Particulars: 10 μM for 6 days. The method, then:
(§2) DLD-1, HCT-116, and HT-29 cells were cultured for 6 days in soft agar in the presence of DMSO (control), 10 μM BAY 11-7082, or 10 μM BAY 11-7085. The data points represent the means of colony counts per field (20×) performed in 5 different regions of the culture dishes. The data shown represent a typical result of two separate experiments. FIG. 2B and FIG. 2C are graphs that show athymic mice received subcutaneous injections of HT-29 (FIG. B) or HCT-116 (FIG. C) cells, followed by […] of BAY 11-7085 (dark bars) or DMSO (white bars) intraperitoneally twice weekly. The bars represent the 25-75% ranges of the tumor volumes and the horizontal lines in the bars are the medians. Using the Kruskal-Wallace statistical test to compare the median tumor volumes between BAY 11-7085 and DMSO yielded a p-value of 0.005 for HT-29 cells but >0.05 for HCT-116 cells.
(§3) Anchorage-independent cell growth is a hallmark of cancer cells and is a good correlation to tumorigencity in vivo. Therefore, the effects of BAY 11-7082 and BAY 11-7085 were examined on colon cancer cell growth using the soft agar colony formation assay.

Assay [4] concerns HCT-116 cells. The assay can be described thus: Soft agar colony formation assay. The class given is cell-based, human. Particulars: 10 μM for 6 days. Here is the method:
as §2, §3

In assay [5] the test system is HT-29 cells. The assay can be described thus: Soft agar colony formation assay. Format: cell-based, human. The note with it: 10 μM for 6 days. The method, then:
as §2, §3

In assay [6] the test system is HT-29 xenografts. Briefly: Subcutaneous colon cancer xenograft in athymic mice. The class given is in vivo, mouse. The note with it: athymic mice; compound alone; cell line not given. Here is the method: as §2
HT-29 and HCT-116 cells were harvested in 0.25% trypsin-PBS-EDTA, washed once in media and PBS, and resuspended in PBS at 1 million cells per 200 μL. One million cells were injected either subcutaneously in the backs or intraperitoneally in 5 week old female nu/nu athymic mice (Charles River Labs). For the mice with subcutaneous tumors, the tumors were allowed to establish themselves for 10 days after which they were randomized to BAY 11-7085 or DMSO. For the mice with intraperitoneal tumors, the mice received DMSO or BAY 11-7085 (5 mg/kg) 24 hours before the cancer cells were injected intraperitoneally. […] Subcutaneous tumor sizes were determined by measuring the length and width with calipers. These studies were approved by the University of Utah Institutional Review Board and Institutional Animal Care and Use Committee and performed in the Animal Resource Center. Mice were euthanized when they experienced a greater than 10% loss in body weight or if they appeared ill. Post-mortem examinations included sectioning of kidney, lung, and liver tissues which were stained with hematoxylin and eosin followed by examination for tissue toxicity/damage by an experienced mouse pathologist (E.J.E.) who was blinded to therapy.
HCT-116 and HT-29 cell lines were used to generate subcutaneous tumors in athymic female mice. The mice were subsequently randomized to be treated with vehicle (DMSO) alone or BAY 11-7085 […] twice weekly for 28 days.

Assay [7] relates to adherent HT-29 cells. The assay can be described thus: Annexin V-FITC apoptosis assay, adherent cells. The class given is cell-based, human.
Description: FIG. 3 is a group of graphs that show NF-κB inhibitors cause apoptosis of colon cancer cells. […] The data points represent the average percent of annexin V-positive, propidium iodide-negative cells (of the total cells counted) from triplicate experiments. The error bars represent the standard error of the means. […] The results shown are a graphic representation of individual flow cytometry results expressed as the percentage of cells that were annexin V-positive of those that excluded propidium iodide. […] An immunoblot of the lysates for cleaved PARP was performed. Each lane represents equal total protein concentrations. […] The cells were allowed to adhere to plastic dishes for 1 hour after which they were washed gently in PBS and stained with crystal violet. The crystal violet stained cells were solubilized in deoxycholate and the absorbance detected in a spectrophotometer at 590 nm. The adherent cells were expressed as a fraction of the controls. Each data point represents the average of triplicate experiments and the error bars the standard errors of the means.
as §1
(§4) Single cell suspensions were plated at 100,000 cells per well in 24-well plates in media containing DMSO, BAY 11-7082, BAY 11-7085, or MG-132 for 8-24 hours in an incubator. Alternatively, DMSO, BAY 11-7082, BAY 11-7085, or MG-132 were added to cells that were confluent and adherent for several days. The nonadherent cells were aspirated off with the media and spun for 3 minutes at 2,000 rpm in 15 mL polypropylene tubes. The adherent cells were washed twice with PBS, dispersed in trypsin, and spun down for 3 minutes at 2,000 rpm in 15 mL polypropylene tubes. The nonadherent and adherent cells were resuspended in 1× binding buffer (10 mM HEPES/NaOH, pH 7.4, 140 mM NaCl, and 2.5 mM CaCl2) to a final concentration of 10^6 cells/mL. 100 μL of the cell solution were transferred to a 5 mL culture tube and incubated with 5 μL of annexin V-FITC-conjugated monoclonal antibody (Pharmingen) and 10 μl, of propidium iodide (from a 50 μg/mL stock solution made in PBS) in the dark at 25° C. for 15 minutes. 400 μL of binding buffer was added to each tube and the cells were analyzed by flow cytometry immediately. The percent of apoptosis was determined as the percent of annexin V-positive, propidium iodide-negative cells of the total cells counted.

Assay [8] has as its system IκB phosphorylation and TNFα-induced NF-κB activation. The note with it: Pierce et al., J Biol Chem 272:21096-103, 1997; cited from earlier work.
Assay [9] relates to JNK/SAPK and p38. Particulars: Pierce et al., J Biol Chem 272:21096-103, 1997; cited from earlier work.
For assay [10], the system named is transiently suspended HT-29 cells. Briefly: Apoptosis of transiently suspended cells during readhesion (annexin V assay). The class given is cell-based, human. Particulars: for apoptosis of readhering HT-29 colon cancer cells: NF-κB inhibitors other than BAY 11-7085. The method, then:
HT-29 cells that were either transiently suspended with trypsin-EDTA or adherent for three days, were treated at time zero with DMSO or 10-100 μM BAY 11-7085. The percent of apoptotic cells was determined using the annexin V flow cytometry assay and graphed versus the dose of BAY 11-7085. FIG. 4B are photographs showing DLD-1, FIG. 4C are photographs showing HCT-116, and FIG. 4D are photographs showing HT-29 cells that were transiently suspended in trypsin-EDTA and allowed to readhere to glass coverslips for 1-24 hours. The cells were fixed and immunostained with an NF-κB p65 subunit monoclonal antibody.
The transiently suspended cells were lysed and allowed to bind to DNA oligonucleotides, containing the NF-κB consensus binding site, that were immobilized to 96-well plates. NF-κB protein bound to the oligonucleotides was detected by an antibody to the p65 subunit that only recognized p65 that is bound to DNA. The positive control was HeLa cells that were stimulated with TNFα. A control was performed using excess free NF-κB oligonucleotides (Competitor). […] NF-κB binding activity was determined by the TransAM assay as in FIG. 5A. […] The data shown represent typical results of three separate experiments. […] An immunoblot for COX-2 was performed.
The percentage of apoptotic cells was determined using the annexin V assay. The data points represent the averages of three experiments; bars, +−.SE. E. DLD-1 and F. HT-29 cells were transduced with an adenovirus containing the IκB super-repressor construct. After 3 days, the cells were transiently suspended and allowed to readhere in the presence of subapoptotic concentrations of BAY 11-7085 or DMSO (vehicle) for 8 hours. The data are expressed as fractions of cells surviving compared with the controls (no adenovirus) and were quantitatively determined by staining the remaining adherent cells with crystal violet.
as §4
Various concentrations of BAY 11-7085 were added to HT-29 cells that were transiently suspended in trypsin-PBS for approximately 15 minutes before replating. The transiently suspended cells were quickly allowed to readhere in order to prevent anoikis. Alternatively, BAY 11-7085 was added to adherent HT-29 cell monolayers.

Assay [11] deals with colon and pancreatic cancer cells. The assay can be described thus: Apoptosis of colon and pancreatic cancer cells during readhesion. Format: cell-based, human. The note with it: not shown.

Turning to `Cc1ccc(S(=O)(=O)/C=C/C#N)cc1` [BAY 11-7082, (2E)-3-(tolylsulfonyl)-2-propenenitrile], in [1] (10 μM, cultured up to 8 days), the cell proliferation entry is “but not BAY 11-7082 greatly inhibited cell proliferation”. For the same compound, in assay [2], the “inhibition of NF-κB activity (EMSA)” value is “more profound inhibition of NF-κB activity occurred with BAY 11-7085 than BAY 11-7082”. The results for the anchorage-independent proliferation result in [3], in assay [4] and in [5] were “significantly inhibited”, “but not HCT-116” and “significantly inhibited”, respectively. In assay [6], the “colon cancer xenograft growth” value was “inhibit colon cancer xenograft growth”. Moreover, the “level of apoptosis (annexin V-positive, propidium iodide-negative cells)” value in assay [7] (adherent HT-29, 24 hours, BAY compounds at doses up to 20, MG-132 20 μM) was “caused an increase in the level of apoptosis”. For the same compound, the “IκB phosphorylation and TNFα-induced NF-κB activation” value in [8] is “inhibit IκB phosphorylation and TNFα-induced NF-κB activation”. Moreover, in assay [9], the “activation of JNK/SAPK and p38” value is “activate JNK/SAPK and p38”.

For the compound `S=C(S)N1CCCC1` [PDTC, pyrrolidine dithiocarbamate], the “induction of apoptosis of HT-29 cells during readhesion” value in [10] (various concentrations, 4 hours, compared with BAY 11-7085) is on record as “caused apoptosis of HT-29 cells during readhesion”.

As to `CC(C)C[C@H](NC(=O)[C@H](Cc1ccccc1)NC(=O)c1cnccn1)B(O)O` [bortezomib], the “apoptosis of readhering HT-29 colon cancer cells” value in assay [10] is listed as “failed to induce apoptosis”. Besides, the “apoptosis of colon and pancreatic cancer cells during readhesion” value in assay [11] is “failed to induced apoptosis”.

As to “cA2: antagonistic and chimeric TNFα monoclonal antibody, inhibits TNFα binding to TNFα receptors”, the “colon cancer cell proliferation” value in assay [1] (cA2 at 10 and 50 μg/mL, after several days of treatment) is recorded as “caused a significant inhibition of colon cancer cell proliferation”. Besides, in [7] (HT-29, 50 μg/mL cA2 for 48 hours, then 20 μM BAY 11-7085 for 24 hours), the “effect of cA2 pretreatment on BAY 11-7085-induced apoptosis” value is reported as “did not diminish BAY 11-7085-induced apoptosis”.

Turning to infliximab, in assay [10], the “apoptosis of readhering HT-29 colon cancer cells” value is given as “failed to induce apoptosis”. Besides, the “apoptosis of colon and pancreatic cancer cells during readhesion” value in [11] is “failed to induced apoptosis”.
